Experimental findings from patent US12448399B2, “Cereblon-based KRAS degrading PROTACs and uses related thereto” (Arvinas Operations, Inc., priority 2023, dated 2025) are described below.

Usually Dmax stands for the greatest extent of degradation seen. High values mean a fuller loss of target, low ones a partial loss of target. As a reminder, the DC50 is the concentration at which degradation of the target reaches its halfway point. A high value points to a less potent degrader.

The experiment deals with T1, KRas-G12D (Homo sapiens, UniProt P01116, G12D).
T1 construct: insert the HiBiT tag onto the N-terminus of one or more of the endogenous KRas alleles; host or cells: AsPC-1 HiBiT-KRasG12D knock-in clone (one tagged allele, two untagged KRasG12D alleles)
As to the kind of experiment: HiBiT Degradation Assay (G12D), AsPC-1 HiBiT-KRasG12D cells, 24 hr. The class given is cell-based. The following applies: for Dmax: ASPC1, AsPC-1 cells, maximum degradation observed; for DC50: AsPC-1 cells. An outline of the steps:
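Degradation was read after 24 hr compound exposure (0.5% DMSO, 37° C) by Nano-Glo HiBiT lytic luminescence in AsPC-1 cells carrying a HiBiT tag on one of three KRasG12D alleles. Signal relative to DMSO gave DC50 and Dmax by 4-parameter fit; alamar blue fluorescence monitored cytotoxicity.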
A general note: HiBiT is a short tag that completes a luciferase, so light tracks the accessible tagged protein.

T1 sequence (P01116 1-188 isoform P01116-2 G12D): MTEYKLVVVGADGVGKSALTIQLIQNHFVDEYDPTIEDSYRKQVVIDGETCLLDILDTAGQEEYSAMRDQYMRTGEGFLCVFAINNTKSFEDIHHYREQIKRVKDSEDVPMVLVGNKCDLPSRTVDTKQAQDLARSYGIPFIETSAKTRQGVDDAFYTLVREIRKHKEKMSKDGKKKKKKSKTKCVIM

With `CCc1cccc2c(F)c(O)cc(-c3ncc4c(N5CC6CCC(C5)N6)nc(OCCN5CCC(CC6CCN(c7cccc8c7CN(C7CCC(=O)NC7=O)C8=O)CC6)CC5)nc4c3F)c12` (stereo not drawn) [Compound 158], the Dmax is ≤ 25% and the DC50 is > 1 µM.

As for `C#Cc1c(F)ccc2cc(O)cc(-c3ncc4c(N5CC6CCC(C5)N6)nc(OCCN5CCC(CN6CCN(CC7CCN(c8ccc9c(c8F)n(C(C)C)c(=O)n9C8CCC(=O)NC8=O)CC7)CC6)CC5)nc4c3F)c12` (stereo not drawn) [Compound 159, 3-{5-[4-({4-[(1-{2-[(4-{3,8-diazabicyclo[3.2.1]octan-3-yl}-7-(8-ethynyl-7-fluoro-3-hydroxynaphthalen-1-yl)-8-fluoropyrido[4,3-d]pyrimidin-2-yl)oxy]ethyl}piperidin-4-yl)methyl]piperazin-1-yl}methyl)piperidin-1-yl]-4-fluoro-2-oxo-3-(propan-2-yl)-2,3-dihydro-1H-1,3-benzodiazol-1-yl}piperidine-2,6-dione], the Dmax was > 70% and the DC50 was < 5.1 µM.

On to `C#Cc1c(F)ccc2cc(O)cc(-c3ncc4c(N5CC6CCC(C5)N6)nc(OCCN5CCC(C)(CN6CCN(CC7CCN(c8ccc9c(c8)n(C)c(=O)n9C8CCC(=O)NC8=O)CC7)CC6)CC5)nc4c3F)c12` (stereo not drawn) [Compound 160, 3-{5-[4-({4-[(1-{2-[(4-{3,8-diazabicyclo[3.2.1]octan-3-yl}-7-(8-ethynyl-7-fluoro-3-hydroxynaphthalen-1-yl)-8-fluoropyrido[4,3-d]pyrimidin-2-yl)oxy]ethyl}-4-methylpiperidin-4-yl)methyl]piperazin-1-yl}methyl)piperidin-1-yl]-3-methyl-2-oxo-2,3-dihydro-1H-1,3-benzodiazol-1-yl}piperidine-2,6-dione], for which the maximal degradation (Dmax) was > 70% and the DC50 was < 5.1 µM.

In the case of `C#Cc1c(F)ccc2cc(O)cc(-c3ncc4c(N5CC6CCC(C5)N6)nc(OCCN5CCC(C)(CC6CCN(CC7CCN(c8ccc9c(c8)n(C)c(=O)n9C8CCC(=O)NC8=O)CC7)CC6)CC5)nc4c3F)c12` (stereo not drawn) [Compound 161, 3-{5-[4-({4-[(1-{2-[(4-{3,8-diazabicyclo[3.2.1]octan-3-yl}-7-(8-ethynyl-7-fluoro-3-hydroxynaphthalen-1-yl)-8-fluoropyrido[4,3-d]pyrimidin-2-yl)oxy]ethyl}-4-methylpiperidin-4-yl)methyl]piperidin-1-yl}methyl)piperidin-1-yl]-3-methyl-2-oxo-2,3-dihydro-1H-1,3-benzodiazol-1-yl}piperidine-2,6-dione], the Dmax was > 70% and the DC50 is < 5.1 µM.

On to `C#Cc1c(F)ccc2cc(O)cc(-c3ncc4c(N5CC6CCC(C5)N6)nc(OCCN5CCN(CC6CCN(CC7CCN(c8ccc9c(c8)n(C)c(=O)n9C8CCC(=O)NC8=O)CC7)CC6)CC5(C)C)nc4c3F)c12` (stereo not drawn) [Compound 162, 3-{5-[4-({4-[(4-{2-[(4-{3,8-diazabicyclo[3.2.1]octan-3-yl}-7-(8-ethynyl-7-fluoro-3-hydroxynaphthalen-1-yl)-8-fluoropyrido[4,3-d]pyrimidin-2-yl)oxy]ethyl}-3,3-dimethylpiperazin-1-yl)methyl]piperidin-1-yl}methyl)piperidin-1-yl]-3-methyl-2-oxo-2,3-dihydro-1H-1,3-benzodiazol-1-yl}piperidine-2,6-dione], for which the maximal degradation (Dmax) was > 70% and the DC50 was < 5.1 µM.

`C#Cc1c(F)ccc2cc(O)cc(-c3ncc4c(N5CC6CCC(C5)N6)nc(OCCN5CCC(CC6CCN(CC7CCN(c8ccc9c(c8F)CN([C@@H]8CCC(=O)NC8=O)C9=O)CC7)CC6)CC5)nc4c3F)c12` [Compound 163, (3R)-3-{5-[4-({4-[(1-{2-[(4-{3,8-diazabicyclo[3.2.1]octan-3-yl}-7-(8-ethynyl-7-fluoro-3-hydroxynaphthalen-1-yl)-8-fluoropyrido[4,3-d]pyrimidin-2-yl)oxy]ethyl}piperidin-4-yl)methyl]piperidin-1-yl}methyl)piperidin-1-yl]-4-fluoro-1-oxo-2,3-dihydro-1H-isoindol-2-yl}piperidine-2,6-dione]: the maximal degradation (Dmax) is > 70% and the DC50 was < 5.1 µM.

For `C#Cc1c(F)ccc2cc(O)cc(-c3ncc4c(N5CC6CCC(C5)N6)nc(OC[C@@H]5C[C@@H](OC6CCN(CC7CN(c8ccc9c(c8)CN(C8CCC(=O)NC8=O)C9=O)C7)CC6)CN5C)nc4c3F)c12` (stereo partly drawn) [Compound 164, 3-(5-{3-[(4-{[(3R,5S)-5-{[(4-{3,8-diazabicyclo[3.2.1]octan-3-yl}-7-(8-ethynyl-7-fluoro-3-hydroxynaphthalen-1-yl)-8-fluoropyrido[4,3-d]pyrimidin-2-yl)oxy]methyl}-1-methylpyrrolidin-3-yl]oxy}piperidin-1-yl)methyl]azetidin-1-yl}-1-oxo-2,3-dihydro-1H-isoindol-2-yl)piperidine-2,6-dione], the maximal degradation (Dmax) was > 70% and the DC50 was < 5.1 µM.

Consider `C#Cc1c(F)ccc2cc(O)cc(-c3ncc4c(N5CC6CCC(C5)N6)nc(OC[C@@H]5C[C@@H](OC6CCN(CC7CCN(c8ccc9c(c8)CN(C8CCC(=O)NC8=O)C9=O)CC7)CC6)CN5CC)nc4c3F)c12` (stereo partly drawn) [Compound 165, 3-(5-{4-[(4-{[(3R,5S)-5-{[(4-{3,8-diazabicyclo[3.2.1]octan-3-yl}-7-(8-ethynyl-7-fluoro-3-hydroxynaphthalen-1-yl)-8-fluoropyrido[4,3-d]pyrimidin-2-yl)oxy]methyl}-1-ethylpyrrolidin-3-yl]oxy}piperidin-1-yl)methyl]piperidin-1-yl}-1-oxo-2,3-dihydro-1H-isoindol-2-yl)piperidine-2,6-dione], for which the Dmax is > 70% and the DC50 is < 5.1 µM.

Take `C#Cc1c(F)ccc2cc(O)cc(-c3ncc4c(N5CC6CCC(C5)N6)nc(OCCN5CCC(CN6CCC(CC7CCN(c8ccc9c(c8F)n(C)c(=O)n9C8CCC(=O)NC8=O)CC7)CC6)CC5)nc4c3F)c12` (stereo not drawn) [Compound 166, 3-{5-[4-({1-[(1-{2-[(4-{3,8-diazabicyclo[3.2.1]octan-3-yl}-7-(8-ethynyl-7-fluoro-3-hydroxynaphthalen-1-yl)-8-fluoropyrido[4,3-d]pyrimidin-2-yl)oxy]ethyl}piperidin-4-yl)methyl]piperidin-4-yl}methyl)piperidin-1-yl]-4-fluoro-3-methyl-2-oxo-2,3-dihydro-1H-1,3-benzodiazol-1-yl}piperidine-2,6-dione]: the Dmax was > 70% and the DC50 is < 5.1 µM.

Turning to `C#Cc1c(F)ccc2cc(O)cc(-c3ncc4c(N5CC6CCC(C5)N6)nc(OCCN5CCC(CN6CCC(CC7CCN(c8ccc9c(c8F)n(C(C)C)c(=O)n9C8CCC(=O)NC8=O)CC7)CC6)CC5)nc4c3F)c12` (stereo not drawn) [Compound 167, 3-{5-[4-({1-[(1-{2-[(4-{3,8-diazabicyclo[3.2.1]octan-3-yl}-7-(8-ethynyl-7-fluoro-3-hydroxynaphthalen-1-yl)-8-fluoropyrido[4,3-d]pyrimidin-2-yl)oxy]ethyl}piperidin-4-yl)methyl]piperidin-4-yl}methyl)piperidin-1-yl]-4-fluoro-2-oxo-3-(propan-2-yl)-2,3-dihydro-1H-1,3-benzodiazol-1-yl}piperidine-2,6-dione], the DC50 was < 5.1 µM.

For `C#Cc1c(F)ccc2cc(O)cc(-c3ncc4c(N5CC6CCC(C5)N6)nc(OCCN5CCC(CN6CCN(CC7CCN(c8ccc9c(c8F)CN(C8CCC(=O)NC8=O)C9=O)CC7)CC6)CC5(C)C)nc4c3F)c12` (stereo not drawn) [Compound 168, 3-{5-[4-({4-[(1-{2-[(4-{3,8-diazabicyclo[3.2.1]octan-3-yl}-7-(8-ethynyl-7-fluoro-3-hydroxynaphthalen-1-yl)-8-fluoropyrido[4,3-d]pyrimidin-2-yl)oxy]ethyl}-2,2-dimethylpiperidin-4-yl)methyl]piperazin-1-yl}methyl)piperidin-1-yl]-4-fluoro-1-oxo-2,3-dihydro-1H-isoindol-2-yl}piperidine-2,6-dione], the maximal degradation (Dmax) is > 70% and the DC50 is < 5.1 µM.

Regarding `C#Cc1c(F)ccc2cc(O)cc(-c3ncc4c(N5CC6CCC(C5)N6)nc(OCCN5CCC(CN6CCN(CC7CCN(c8ccc9c(c8F)CN(C8CCC(=O)NC8=O)C9=O)CC7)C(C)(C)C6)CC5)nc4c3F)c12` (stereo not drawn) [Compound 169, 3-{5-[4-({4-[(1-{2-[(4-{3,8-diazabicyclo[3.2.1]octan-3-yl}-7-(8-ethynyl-7-fluoro-3-hydroxynaphthalen-1-yl)-8-fluoropyrido[4,3-d]pyrimidin-2-yl)oxy]ethyl}piperidin-4-yl)methyl]-2,2-dimethylpiperazin-1-yl}methyl)piperidin-1-yl]-4-fluoro-1-oxo-2,3-dihydro-1H-isoindol-2-yl}piperidine-2,6-dione], the greatest degradation seen (Dmax) was > 70% and the DC50 was < 5.1 µM.

Consider `C#Cc1c(F)ccc2cc(O)cc(-c3ncc4c(N5CC6CCC(C5)N6)nc(OCCN5CCC(CN6CCC(CC7CCN(c8cc(C)c9c(c8F)CN(C8CCC(=O)NC8=O)C9=O)CC7)CC6)CC5)nc4c3F)c12` (stereo not drawn) [Compound 170, 3-{5-[4-({1-[(1-{2-[(4-{3,8-diazabicyclo[3.2.1]octan-3-yl}-7-(8-ethynyl-7-fluoro-3-hydroxynaphthalen-1-yl)-8-fluoropyrido[4,3-d]pyrimidin-2-yl)oxy]ethyl}piperidin-4-yl)methyl]piperidin-4-yl}methyl)piperidin-1-yl]-4-fluoro-7-methyl-1-oxo-2,3-dihydro-1H-isoindol-2-yl}piperidine-2,6-dione], for which the Dmax is > 70% and the DC50 was < 5.1 µM.

As to `CCc1c(F)ccc2cc(O)cc(-c3ncc4c(N5CC6CCC(C5)N6)nc(OCCN5CCC6(CC5)CCN(CC5CCN(c7ccc8c(c7)n(C)c(=O)n8C7CCC(=O)NC7=O)CC5)CC6)nc4c3F)c12` (stereo not drawn) [Compound 171, 3-(5-{4-[(9-{2-[(4-{3,8-diazabicyclo[3.2.1]octan-3-yl}-7-(8-ethyl-7-fluoro-3-hydroxynaphthalen-1-yl)-8-fluoropyrido[4,3-d]pyrimidin-2-yl)oxy]ethyl}-3,9-diazaspiro[5.5]undecan-3-yl)methyl]piperidin-1-yl}-3-methyl-2-oxo-2,3-dihydro-1H-1,3-benzodiazol-1-yl)piperidine-2,6-dione], the Dmax is > 70% and the 50% degradation concentration (DC50) was < 5.1 µM.
